By MBC is commonly meant the smallest concentration meeting the test's criterion for killing. Low readings indicate more potent killing, high ones less potent killing. One may read the MIC as the lowest concentration found to suppress growth. A lower MIC goes with inhibition by little substance. By IC50 is commonly meant the concentration that inhibits the measured activity by half.

The values that follow come from patent US7049396B2, “Synthetic peptides that inhibit leukocyte superoxide anion production and/or attract leukocytes” (priority 1995, dated 2006).

One data set deals with recombinant p47^phox (Homo sapiens, UniProt P14598). Nature of the data set: Competitive ligand-blot binding assay. The protocol: Competitive ligand-blot assays were performed by incubating recombinant p47^phox (0.02 μM) with or without various concentrations (0.006, 0.06, and 0.6 μM) of PR-39 for 1 hr. at 37° C. and then with biotinylated PR-39 (0.06 μM) for an additional 1 hr. at 37° C. The solutions were dialyzed against ddH2O for 1 hr. at 4° C. before blotting to nitrocellulose (5 μl) and detection with a streptavidin alkaline-phosphatase detection system as described above.

For data set [1], the target named is 47 kDa neutrophil cytosol protein (Homo sapiens, UniProt P14598). Briefly: Ligand-blot binding assay with biotinylated PR-39, human cytosol. Particulars: biotinylated PR-39 probe.
A further data set has as its system Salmonella choleraesuis. Format: cell-based. The procedure: (§1) Plates were incubated at 37° C. for 18 hr. […] Viable bacteria were counted. Tests were repeated on three different days. […] The results were expressed as the mean ± standard deviation. […] S. choleraesuis, ATCC 6962 was used in this experiment. […] Slides were stained with LeukoStat solutions (Fisher, Pittsburgh, Pa.). […] At least 200 neutrophils were examined. […] Tests were repeated on three different days. Results were expressed as the mean±standard deviation.

The target of data set [2] is T1, interaction between GST-p47^phox and recombinant p22^phox (Homo sapiens, UniProt P14598).
T1 construct: (GST)-p47^phox-SH3 (residues 151–284) fusion protein; made in house; host or cells: p22phox fragment: baculovirus-infected cells (used as lysate)
Nature of the data set: Solution binding assay GST-p47phox-SH3 / recombinant p22phox. Particulars: concentrations close to IC50's of the cell-free oxidase assay. The procedure: Methods for production of the glutathione S-transferase (GST)-p47^phox-SH3 (residues 151–284) fusion protein have been previously described (Leto et al., 1994). For solution binding assays, lysates of recombinant p22^phox protein (residues 127–195) from baculovirus-infected cells (2.5×10^4 cell equivalents per assay) were mixed with peptides and incubated for 1 hr. at 20° C. with 100 μl of GST-p47^phox bound to glutathione-Sepharose beads (15% suspension). Bound proteins were washed three times in 15 volumes of ice-cold 100 mM KCl/3 mM NaCl/3.5 mM MgCl2/0.15 mM phenylmethanesulfonyl fluoride/10 mM Pipes (pH 7.5), eluted with 1% SDS, and analyzed by SDS-PAGE followed by immunoblotting with mouse anti-p22^phox antibody (mAb 449; A. Verhoeven, Central Laboratories of the Netherlands Red Cross). Controls included blotting of recombinant p22^phox lysate (5×10^3 cell equivalents) alone (p22) and bound complexes detected without competing PR peptides (−).

For data set [3], the system named is S. typhimurium, KSU isolate 7. Nature of the data set: Lawn-spotting antibacterial assay (S. typhimurium). As to conditions: 5 μl spotted, inactive segments up to 1 mg/ml. Format: cell-based, Salmonella typhimurium.
The next data set deals with E. coli, ATTC 25922. Briefly: Lawn-spotting antibacterial assay (E. coli). Format: cell-based, Escherichia coli. Particulars: 5 μl spotted, inactive segments up to 1 mg/ml.
Data set [4] relates to S. choleraesuis, ATCC 6962. Nature of the data set: Bacterial susceptibility to neutrophil phagocytosis. The class given is cell-based, Salmonella choleraesuis. As to conditions: bacteria treated at 8 MICs. The protocol: as §1
The test system of another data set is Staphylococcus aureus. Briefly: MIC/MBC microdilution broth method. The class given is cell-based. As to conditions: Staphylococcus aureus. The protocol:
as §1

A further data set relates to porcine neutrophils. Nature of the data set: Neutrophil chemotaxis, modified Boyden chamber. The class given is cell-based. Particulars: peptide at 0.05 μM, 30 min. The procedure: Influence of PR-39 on neutrophil chemotaxis. Chemotaxis of porcine neutrophils was measured by the procedure of Salak et al. (1993). Briefly, PR-14, PR15, PR-16, PR-26, or PR-39 (30 μl in Dulbecco's Modified Eagle's medium) were placed in the bottom chamber of a modified Boyden chamber (Neuro Probe, Cabin John, Md.) and porcine neutrophils (50 μl at 5×10^6 cells/ml) were placed in the top chamber. The chambers were incubated at 37° C. for 30 min. Cells that migrated through the porous membrane (pore size 5 μm) were stained using LeukoStat solution and enumerated. Five microscope fields were counted and the cells that migrated through the membrane were standardized to the medium control and referred to as the migration index.

The target in data set [5] is T2, cell-free NADPH oxidase (human neutrophil cytosol and membranes) (Homo sapiens, UniProt P14598).
T2 construct: 10^6 cell equivalents of human neutrophil cytosol; from tissue; host or cells: human peripheral blood neutrophils (cytosol and deoxycholate-solubilized membranes)
T2 sequence (P14598 1-390): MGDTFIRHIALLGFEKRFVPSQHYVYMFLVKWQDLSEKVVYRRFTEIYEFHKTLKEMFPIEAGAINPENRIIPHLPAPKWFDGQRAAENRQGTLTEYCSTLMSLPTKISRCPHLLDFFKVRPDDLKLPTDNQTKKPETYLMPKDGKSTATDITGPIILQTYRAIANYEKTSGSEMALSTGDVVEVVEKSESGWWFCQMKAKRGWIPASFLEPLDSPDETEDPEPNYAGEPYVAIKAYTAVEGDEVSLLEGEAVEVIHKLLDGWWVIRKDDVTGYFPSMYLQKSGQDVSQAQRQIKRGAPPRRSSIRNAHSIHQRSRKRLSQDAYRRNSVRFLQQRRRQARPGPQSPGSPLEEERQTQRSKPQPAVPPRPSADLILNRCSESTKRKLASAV
Briefly: Cell-free O2- production assay. The class given is biochemical. The procedure: Reactions (100 μl) contained 10^6 cell equivalents of human neutrophil cytosol and 5×10^5 cell equivalents of deoxycholate-solubilized membranes prepared from human peripheral blood neutrophils. […] Control reactions contained 5 μg of superoxide dismutase. Superoxide anion generation was calculated based on superoxide dismutase-inhibitable changes in cytochrome c absorbance observed at 551 nm. The reactions were followed for 20 min. after addition of arachidonic acid, with absorbance readings taken at 1-min. intervals. […] Determinations were based on reactions performed in duplicate. • (ii) Binding assays. Neutrophils were disrupted by sonication, and unbroken cells, debris, and granules were removed by centrifuigation (13,000×g for 60 min.). Cytosol fractions were prepared by centrifugation (100,000 g for 45 min.) of the supernatants to remove residual membranes. Cytosolic proteins (15 μg in reducing buffer) were separated on a 7.5% SDS PAGE gel, transferred to PVDF membranes, and probed with biotinylated PR-39 (0.3 μM) for 2 hr. Binding between PR-39 and cytosolic proteins were visualized by a chemiluminescent streptavidin alkaline phosphatase system using an Epson scanner (Torrance, Calif.) and the NIH Image program. PR-39 was labeled with biotin hydrazide at the carboxy-terminus (Pierce Chemical Co., Rockford, Ill.) and purified by gel filtration chromatography.

The test system of data set [6] is 47 kDa neutrophil cytosol protein. Briefly: Ligand-blot binding assay with biotinylated PR-39, porcine cytosol. Particulars: biotinylated PR-39 probe.

In brackets after ≈: the same amount, converted by molar mass. Where a SMILES comes first, the peptide text is derived from it. A value given as a limit tells only on which side of the number the result lay.

Experimental for Escherichia coli, K88: Briefly, 50 μl of twofold serial dilutions (128 to 0.25 μM) of synthetic peptides were dispensed into wells of 96-well tissue culture plates. Bacteria (E. coli, ATCC 25922; E. coli, K88; S. typhimurium, fresh isolate from a dog; Salmonella choleraesuis ATCC 6962; Streptococcus suis, fresh isolate from porcine spleen; and Staphylococcus aureus) from sheep-blood or brain-heart-infusion agar plates were standardized to 0.5 McFarland in demineralized water using a radiometer/sensititre (Chelsea Instrument Ltd., England). The water/bacteria suspension (100 μl) was immediately transferred to 10 ml of cation-adjusted Muller-Hinton broth and 50 μl of the bacterial suspension then were added to each well of the microtiter plate. Plates were incubated for 20 hr. at 37° C. and MICs were determined. Ten microliters of bacterial suspensions in Muller-Hinton broth also were diluted to determine the actual bacterial concentration using standard colony forming unit (CFU) counting. After determination of the MICs, 10 μl of each bacteria-peptide suspension were plated on sheep-blood or brain-heart-infusion agar plates and incubated for 24 hr. at 37° C. to determine the MBCs. MBC was considered that peptide concentration that inhibited 99.9% of the original CFUs (NCCLS, 1990). • (iv) PAE.

Turning to `CC[C@H](C)[C@H](NC(=O)[C@H](CCCNC(=N)N)NC(=O)[C@@H]1CCCN1C(=O)[C@@H]1CCCN1C(=O)[C@H](CC(C)C)NC(=O)[C@H](CCCNC(=N)N)NC(=O)[C@@H]1CCCN1C(=O)[C@@H]1CCCN1C(=O)[C@H](Cc1ccccc1)NC(=O)[C@H](Cc1ccccc1)NC(=O)[C@@H]1CCCN1C(=O)[C@@H]1CCCN1C(=O)[C@@H]1CCCN1C(=O)[C@H](CCCNC(=N)N)NC(=O)[C@@H]1CCCN1C(=O)[C@H](CCCNC(=N)N)NC(=O)[C@@H]1CCCN1C(=O)[C@H](CC(C)C)NC(=O)[C@H](Cc1ccc(O)cc1)NC(=O)[C@@H]1CCCN1C(=O)[C@@H]1CCCN1C(=O)[C@H](CCCNC(=N)N)NC(=O)[C@@H]1CCCN1C(=O)[C@H](CCCNC(=N)N)NC(=O)[C@H](CCCNC(=N)N)NC(=O)[C@@H](N)CCCNC(=N)N)C(=O)N1CCC[C@H]1C(=O)N1CCC[C@H]1C(=O)NCC(=O)N[C@@H](Cc1ccccc1)C(=O)N1CCC[C@H]1C(=O)N1CCC[C@H]1C(=O)N[C@@H](CCCNC(=N)N)C(=O)N[C@@H](Cc1ccccc1)C(=O)N1CCC[C@H]1C(=O)N1CCC[C@H]1C(=O)N[C@@H](CCCNC(=N)N)C(=O)N[C@@H](Cc1ccccc1)C(=O)N1CCC[C@H]1C(=O)O` [PR-39] (H-RRRPRPPYLPRPRPPPFFPPRLPPRIPPGFPPRFPPRFP-OH; N-terminus and C-terminus assumed), the MBC against Escherichia coli, K88 was found to be 4 µM (≈ 18.9 µg/mL); against Salmonella choleraesuis, 4 µM (≈ 18.9 µg/mL). In addition, the MIC is 2 µM (≈ 9.44 µg/mL) in the data set on Escherichia coli, K88; 2 µM (≈ 9.44 µg/mL) against Salmonella choleraesuis; above 250 µM against Staphylococcus aureus. In addition, the “inhibition of binding of biotinylated PR-39 to recombinant p47phox” value on recombinant p47^phox (tenfold excess of unlabeled peptide) is recorded as “completely blocked”; on recombinant p47^phox (unlabeled peptide 0.06 μM, equimolar to labeled), 90%. For the same molecule, the “binding to 47 kDa cytosolic protein” value in data set [1] and in data set [6] was “bound” in each case. Further, in data set [2], the “blocking of interaction between GST-p47phox and recombinant p22phox” value is reported as “effectively blocked”. In addition, the “antibacterial activity (clear zone on bacterial lawn)” value is “had antibacterial activity” in data set [3] and “had antibacterial activity” with E. coli, ATTC 25922. For the same molecule, the neutrophil viability entry with neutrophils is “did not affect neutrophil viability”. Moreover, the “phagocytic index of porcine neutrophils” value in data set [4] is reported as “did not increase”. Also, in the data set on porcine neutrophils, the “neutrophil chemotaxis (migration index)” value is “chemotactic agents”. This molecule had an IC50 in data set [5] of around 2 µM. For the same molecule, the “inhibition of O2- generation” value in data set [5] (cell-free assay, concentrations greater than 5 μM) is given as “completely inhibited”.
